Laboratory results reported in patent US20250179047A1, “5-[7-(3,4-DIHYDRO-1H-ISOQUINOLINE-2-CARBONYL)-1,2,3,4 TETRAHYDROISOQUINOLIN-6-YL]-1H-PYRROLE-3-CARBOXAMIDE DERIVATIVES, PHARMACEUTICAL COMPOSITIONS CONTAINING THEM AND THEIR USES AS PRO-APOPTOTIC AGENTS” (LES LABORATOIRES SERVIER, priority 2022, published 2025).
pKi: −log10 of the molar value. Like-named read-outs stand apart in the source and are kept apart here.

Tests used:
[1] = test system: KMS-12-PE Bcl-2 WT; experiment: In vitro cytotoxicity CellTiter-Glo 48 h, KMS-12-PE Bcl-2 WT; type: cell-based; conditions: Homo sapiens, KMS-12-PE, C50 = concentration needed to reach 50% of the cellular viability
Description: KMS-12-PE (ACC 606) were purchased from the Leibniz-Institute DSMZ (Braunschweig, Germany) and were grown at 37° C. in a humidified atmosphere with […] in media recommended by the suppliers. Lentiviral particles containing Bcl-2 wild type (also named “Bcl2 WT”) and Bcl-2 mutated on G101V (also named “Bcl2 G101V”) were cloned into pcLV-CMV-DEST-IRES-TagRFP. Lentiviral particles (1×106) were mixed with Polybrene at 8 µg/ml and transduced by spinoculation for 1 h at 32° C. and incubated overnight. After 8 days, TagRFP positive-cells were sorted by FACS. BCL2 expression was monitored by immunoblotting using anti-Flag and anti-BCL2 antibodies.
Cellular viability was monitored with the cell viability assay (CellTiter-Glo®) on KMS-12-PE WT and G101V cell lines. The CellTiter-Glo® (CTG) Luminescent Cell Viability Assay (from Promega) is a homogeneous method to determine the number of viable cells in culture based on quantitation of the ATP present, which signals the presence of metabolically active cells.
Dose response of compounds are performed with 10 mM stock solutions (DMSO), 11-points curve, in a 384-well compound plate. The assay plate is prepared by stamping 40 nL from compound dilution plate of all different concentrations (e.g. 10 mM to have final […] assay test) into a cell culture microplate, using Echo acoustic liquid handling (Labcyte, Beckman). 40 μl of cell solution is added and cells are incubated with compounds for 48 h at 37° C., 5% CO2. CTG was added to the cells (according to the manufacturer instructions) and luminescence intensity was recorded using the Pherastar plate reader (BMG).
This assay provides in vitro cellular potency of the tested Bcl-2 inhibitors, measuring the C50, defined as the concentration needed to reach 50% of the cellular viability.

[2] = molecular target: BCL2 D103Y (Homo sapiens, UniProt P10415, D103Y); experiment: TR-FRET competitive binding assay, BCL2 D103Y; conditions: Ki determined from IC50, read-out: TR_FRET EKI_Bcl2 D103Y
Description: (§1) The relative binding potency of each compound was determined in a competitive binding assay using time resolved-fluorescence resonance energy transfer (TR-FRET). The method utilised a fluorescein labelled peptide derived from PUMA (5Flu-Ahx-[…]-NH2 wherein Ahx means 6-hexanoic acid monomer and the amino acid sequence is referred to as SEQ ID:01) which binds to a terbium labelled BCL2 or BCLXL protein. The degree of binding or corresponding compound inhibition can be quantified by the TR-FRET signal between the terbium donor and fluorescein acceptor.
(§2) The human BCL2_wild-type (also named BCL2_wt), BCL2_G101V mutant and BCLXL_wild-type were E. coli expressed as a N-terminal Halo-fusion proteins and singly labelled with Terbium on the Halo protein to afford the following amino acid sequences:
(§3) wherein the BCL2(1-207) sequence corresponds to UniProtKB® primary accession number P10415 and the BCLXL(2-196) sequence corresponds to UniProtKB® primary accession number Q07817-1.
(§4) The assay was performed in a 40 μL volume in white 384-standard well plates (Corning #3574). An 11-point serial dilution of each compound was prepared in DMSO and transferred directly to plate followed by addition of fluorescein labelled peptide and lastly protein. Final assay conditions were 0.5 nM BCL2_wt, BCL2_G101V, BCL2_D103Y, BCL2_F104I, BCL2_D111A or BCLXL_wt, 2 or 20 nM fluorescein labelled peptide, 50 mM Hepes pH 7.5, 150 mM NaCl, 0.5 mM TCEP (Tris(2-carboxyethyl)phosphine), 0.05% Tween 20, 5% DMSO. The mixture was incubated for 2 hours at 23° C.
(§5) TR-FRET measurements were performed on a Biotek Synergy Neo plate reader. TR-FRET was measured by excitation of the Terbium-donor at 340 nm and subsequent (delay time 100 μs) measurement of terbium and fluorescein emission at 495 nm and 520 nm, respectively, over a collection time of 300 μs. The TR-FRET signal was calculated as the emission-ratio at 520 nm over 495 nm.
(§6) The TR-FRET ratio readout for test compounds was normalized against 0% inhibition controls wells and 100% inhibition control wells. Test compound potency (IC50) was estimated by nonlinear regression using the sigmoidal dose-response (variable slope) using Xlfit 4 (IDBS, Guildford, Surrey, UK, model 205). Were the IC50 could not be determined the % inhibition at the highest tested concentration is given.
(§7) y=(A+((B−A)/(1+((C/x)^D))))
(§8) where y is the normalized TR-TRET ratio measurement for a given concentration of test compound, x is the concentration of test compound, A is the estimated efficacy (% inhibition) at infinite compound dilution, and B is the maximal efficacy (% inhibition). C is the IC50 value and D is the Hill slope coefficient.
(§9) The K1 values were determined from the IC50 values according to Cer et al, Nucleic Acids Res, 2009, July 1; 37 (WebServer issue): W441-W445.

[3] = molecular target: BCL2 WT (Homo sapiens (Human), UniProt P10415); experiment: TR-FRET competitive binding assay, BCL2 WT
Description: as §1, §2, §3, §4, §5, §6, §7, §8, §9

[4] = molecular target: BCL2 G101V (Homo sapiens, UniProt P10415, G101V); experiment: TR-FRET competitive binding assay, BCL2 G101V; conditions: BCL2 G101V; Ki determined from IC50; read-out: TR_FRET EKI_Bcl2 G101V
Description: as §1, §2, §3, §4, §5, §6, §7, §8, §9

[5] = test system: BCL2 G101V; experiment: TR-FRET competitive binding assay, BCL2 G101V; design: species or system human; conditions: for TR_FRET EKI G101V/WT selectivty: ratio of Ki BCL2 G101V to BCL2 WT; for TR_FRET EKI G101V/WT selectivty ratio: ratio Ki BCL2 G101V / Ki BCL2 WT
Description: as §1, §2, §3, §4, §5, §6, §7, §8, §9

[6] = molecular target: BCLXL WT (Homo sapiens (Human), UniProt Q07817); experiment: TR-FRET competitive binding assay, BCLXL WT; conditions: for pKi: BCLXL WT, Ki determined from IC50, read-out: TR_FRET EKI BclxL; for TR_FRET EKI BCLxL/WT selectivty: ratio of Ki BCLxL to BCL2 WT; for TR_FRET EKI BCLxL/WT selectivty ratio: ratio Ki BCLxL / Ki BCL2 WT
Description: as §1, §2, §3, §4, §5, §6, §7, §8, §9

[7] = Ki determined from IC50, read-out: TR_FRET EKI_Bcl2
[8] = Ki determined from IC50, read-out: TR_FRET EKI_Bcl2 WT

Sequence of BCLXL WT (Q07817 other isoform, or with tags, fused parts or gaps): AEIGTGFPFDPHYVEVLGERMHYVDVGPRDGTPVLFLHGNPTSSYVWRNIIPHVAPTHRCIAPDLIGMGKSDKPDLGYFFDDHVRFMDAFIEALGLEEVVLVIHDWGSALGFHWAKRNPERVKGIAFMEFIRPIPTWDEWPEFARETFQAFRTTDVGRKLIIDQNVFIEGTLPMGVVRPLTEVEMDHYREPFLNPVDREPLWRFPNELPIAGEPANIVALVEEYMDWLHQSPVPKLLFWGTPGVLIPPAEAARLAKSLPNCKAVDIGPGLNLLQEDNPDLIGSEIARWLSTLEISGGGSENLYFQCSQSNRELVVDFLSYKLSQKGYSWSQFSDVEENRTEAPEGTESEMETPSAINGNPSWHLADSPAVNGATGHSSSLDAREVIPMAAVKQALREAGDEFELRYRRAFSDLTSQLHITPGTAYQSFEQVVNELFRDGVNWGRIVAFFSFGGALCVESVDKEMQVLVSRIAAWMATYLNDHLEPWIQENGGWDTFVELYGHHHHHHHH

SMILES | IC50 [1] [µM] | pKi [2] | pKi [3, 7] | pKi [4] | TR_FRET EKI G101V/WT selectivty [5] | pKi [6] | TR_FRET EKI BCLxL/WT selectivty [6] | pKi [3, 8] | TR_FRET EKI G101V/WT selectivty ratio [5] | TR_FRET EKI BCLxL/WT selectivty ratio [6]
Cc1c(C(=O)N(c2ccccc2)c2cnn(C)c2)cc(-c2cc3c(cc2C(=O)N2Cc4ccccc4C[C@H]2C)CN(C(=O)Cc2ccc(OCCC4CCN(C)CC4)cc2)CC3)n1C [Example 237] | 0.007 | 10.24 | 10.49 | 9.28 | 16.3 | 8.77 | 53.1 |  |  | 
Cc1c(C(=O)N(c2ccccc2)c2cnc3c(cnn3C)c2)cc(-c2cc3c(cc2C(=O)N2Cc4ccccc4C[C@H]2C)CN(C(=O)Cc2ccc(OCCN4CCOCC4)cc2F)CC3)n1C [Example 194, 5-[2-[2-[2-fluoro-4-(2-morpholinoethoxy)phenyl]acetyl]-7-[(3R)-3-methyl-3,4-dihydro-1H-isoquinoline-2-carbonyl]-3,4-dihydro-1H-isoquinolin-6-yl]-1,2-dimethyl-N-(1-methylpyrazolo[3,4-b]pyridin-5-yl)-N-phenyl-pyrrole-3-carboxamide] | 0.0026 | 10.10 |  | 9.00 |  | 8.48 |  | 10.52 | 35.7 | 115.0
Cc1c(C(=O)N(c2ccccc2)c2cc(C#N)n(C(F)F)c2C)cc(-c2cc3c(cc2C(=O)N2Cc4ccccc4C[C@H]2C)CN(C(=O)Cc2ccc(OCCN4CCOCC4)cc2)CC3)n1C [Example 214, N-[5-cyano-1-(difluoromethyl)-2-methyl-pyrrol-3-yl]-1,2-dimethyl-5-[7-[(3R)-3-methyl-3,4-dihydro-1H-isoquinoline-2-carbonyl]-2-[2-[4-(2-morpholinoethoxy)phenyl]acetyl]-3,4-dihydro-1H-isoquinolin-6-yl]-N-phenyl-pyrrole-3-carboxamide] | 0.0035 | 9.92 |  | 9.15 |  | 8.07 |  | 10.30 | 13.3 | 168.6
Cc1c(N(C(=O)c2cc(-c3cc4c(cc3C(=O)N3Cc5ccccc5C[C@H]3C)CN(C(=O)Cc3ccc(OCCN5CCOCC5)cc3)CC4)n(C)c2C)c2ccc(F)cc2)cc(C#N)n1C [Example 185, N-(5-cyano-1,2-dimethyl-pyrrol-3-yl)-N-(4-fluorophenyl)-1,2-dimethyl-5-[7-[(3R)-3-methyl-3,4-dihydro-1H-isoquinoline-2-carbonyl]-2-[2-[4-(2-morpholinoethoxy)phenyl]acetyl]-3,4-dihydro-1H-isoquinolin-6-yl]pyrrole-3-carboxamide] | 0.0051 | 9.89 |  | 8.82 |  | 8.23 |  | 10.22 | 23.4 | 92.8
Cc1c(C(=O)N(c2ccccc2)c2cc(F)cc(C#N)c2)cc(-c2cc3c(cc2C(=O)N2Cc4ccccc4C[C@H]2C)CN(C(=O)Cc2ccc(OCCN4CCOCC4)cc2)CC3)n1C [Example 226, N-(3-cyano-5-fluoro-phenyl)-1,2-dimethyl-5-[7-[(3R)-3-methyl-3,4-dihydro-1H-isoquinoline-2-carbonyl]-2-[2-[4-(2-morpholinoethoxy)phenyl]acetyl]-3,4-dihydro-1H-isoquinolin-6-yl]-N-phenyl-pyrrole-3-carboxamide] | 0.0365 | 9.12 | 9.59 | 8.08 | 32.2 | 7.38 | 160.8 |  |  | 
Cc1c(C(=O)N(c2ccccc2)c2cnn(C)c2)cc(-c2cc3c(cc2C(=O)N2Cc4ccccc4C[C@H]2CN2CCCCC2)CN(C(=O)Cc2ccc(OCCC4CCOCC4)cc2)CC3)n1C [Example 240] | 0.0446 | 9.82 | 9.94 | 8.17 | 57.8 | 7.43 | 323 |  |  | 
Cc1c(C(=O)N(c2ccccc2)c2cnn(C(F)F)c2)cc(-c2cc3c(cc2C(=O)N2Cc4ccccc4C[C@H]2C)CN(C(=O)Cc2ccc(OCCN4CCOCC4)cc2)CC3)n1C [Example 190, N-[1-(difluoromethyl)pyrazol-4-yl]-1,2-dimethyl-5-[7-[(3R)-3-methyl-3,4-dihydro-1H-isoquinoline-2-carbonyl]-2-[2-[4-(2-morpholinoethoxy)phenyl]acetyl]-3,4-dihydro-1H-isoquinolin-6-yl]-N-phenyl-pyrrole-3-carboxamide] | 0.0077 | 9.92 |  | 8.44 |  | 7.77 |  | 10.30 | 73.4 | 342.7
Cc1c(C(=O)N(c2ccccc2)c2cnc3c(cnn3C)c2)cc(-c2cc3c(cc2C(=O)N2Cc4ccccc4C[C@H]2C)CN(C(=O)Cc2ccc(OCCN4CCOCC4)cc2)CC3)n1C [Example 195, 1,2-dimethyl-5-[7-[(3R)-3-methyl-3,4-dihydro-1H-isoquinoline-2-carbonyl]-2-[2-[4-(2-morpholinoethoxy)phenyl]acetyl]-3,4-dihydro-1H-isoquinolin-6-yl]-N-(1-methylpyrazolo[3,4-b]pyridin-5-yl)-N-phenyl-pyrrole-3-carboxamide] | 0.0041 | 10.30 |  | 9.05 |  | 8.30 |  | 10.85 | 63.6 | 359.1
